In patent US10125097B2, “1- [1-(benzoyl)-pyrrolidine-2-carbonyl]-pyrrolidine-2-carbonitrile derivatives” (UNIVERSITAT DE BARCELONA, priority 2012, dated 2018):

What was measured:
[1] = molecular target: human prolyl oligopeptidase (Homo sapiens (Human), UniProt P48147); assay: POP inhibition assay (Z-G-P-AMC substrate, fluorimetric); format: biochemical; settings: Conditions B: 100 mM Tris-acetate, 10 mM BSA, 1 mM DTT, pH 7.3, hPOP 10 nM; read-out: IC50, inhibition of human prolyl oligopeptidase, measured in conditions B
Description: Expression and Purification of Prolyl Oligopeptidase (POP)
POP was obtained by expression in E. coli and affinity purification using a His tail fusion according to a literature procedure (Tarragó T et al., ChemBioChem 2006; 7:827-33) summarized below:
hPOP expression: E. coli BL21 competent cells were transformed with pETM10 hPOP. To induce expression, a pre-culture of LB medium (50 mL) containing kanamycin (50 μg/mL) was inoculated with one colony and was grown overnight at 37° C. Next day, two cultures of LB medium (500 mL) were inoculated with the overnight culture (10 mL). The inoculated cultures were grown at 37° C. and 220 rpm until the OD595 was 1.2 (2.5-3 hours). IPTG was then added (final concentration of 1 mM) and induction was performed overnight at 25° C. Cells were harvested (3500 g, 15 min, 4° C.) and the pellet was suspended in suspension buffer (50 mL) [Tris-HCl pH 8 (50 mM), NaCl (300 mM), imidazole (1 mM)] and sonicated with use of four cycles (each consisting of 15 sec of sonication and 15 sec of rest) at an intensity of 50% and 0.5 pulses, the sample being kept on ice. After sonication, the sample was centrifuged (40 000 g, 30 min, 4° C.) and the supernatant was used immediately for POP purification. An ÁKTA explorer FPLC system was used for purification. The supernatant was applied at a flow of 1 mL/min to a HiTrapQuelating column (5 mL) previously equilibrated with 5 column volumes of suspension buffer. The column was washed with suspension buffer until the absorbance at 280 nm returned to basal level. The column was then rinsed with 5 volumes of washing buffer (50 mM Tris-HCl, pH 8, 300 mM NaCl, 30 mM imidazole). The elution was performed with 4 volumes of elution buffer (50 mM Tris-HCl, pH 8, 300 mM NaCl, 500 mM imidazole). Fractions (4 mL) were collected during the entire elution. POP activity was checked in all fractions and positive ones were analyzed by SDS-PAGE and stained with Biosafe Comassie Stain G-250. Positive fractions were collected and desalted by use of a HiPrep 26/10 Desalting column with Tris-HCl (50 mM, pH 8) as buffer. Recombinant hPOP was quantified with the Bio-Rad Protein Assay with BSA as standard. Aliquots of the recombinant enzyme were prepared and immediately frozen with liquid nitrogen and stored at −80° C.
POP activity was determined following the method described by Toide et al (Toide K et al., J. Pharmacol. Exp. Ther. 1995; 274:1370-8), using Z-G-P-AMC (N-benzyloxycarbonyl-Gly-Pro-methylcoumarinyl-7-amide) as POP substrate. The reactions were performed in 96-well microtiter plates, which allowed simultaneous monitoring of multiple reactions. For each reaction, activity buffer (134 μl, 100 mM Na/K phosphate buffer, pH 8.0) was pre-incubated for 15 min at 37° C. with hPOP (ranging from 20 to 60 nM, depending on the activity of the hPOP batch) and the corresponding new compound solution (3 μl). A stock solution of new compound was prepared in DMSO (100 mM), and dilutions were prepared from this stock solution with DMSO. Alternatively, the reactions were performed using another activity buffer (141 μL, 100 mM Tris-acetate, […], 1 mM DTT, pH 7.3), pre-incubating with hPOP (10 nM) and the corresponding new compound solution (3 μl) (Conditions B).
After preincubation, Z-G-P-AMC (10 μl, 3 mM in 40% 1,4-dioxane) was added (3 μl, 1.5 mM in 40% of 1,4-dioxane, in Conditions B), and the reaction was incubated for 1 hour at 37° C. The reaction was stopped by adding sodium acetate (150 μl, 1 M, pH 4) and the formation of AMC was measured fluorimetrically. The excitation and emission wavelengths were 360/40 and 485/20 nm, respectively.
Several concentration points (ranging from 25 μM to 400 μM) were measured for each compound. The inhibitory activity on prolyl oligopeptidase was calculated according to eq 1. For each new compound, the fluorescence in the presence (a) and in the absence of hPOP (b) was measured. […]

[2] = Parallel artificial membrane permeability assay (PAMPA); format: in vitro ADME; settings: 200 μM initial concentration, pH 7.4, 4 hours, room temperature; for Papp at 4 h, 200 μM: PAMPA, read-out: Effective permeability Pe
Description: Parallel artificial membrane permeability assay (PAMPA) described in Kansy M et al., J. Med. Chem. 1998; 41(7):1007-10 was used to determine the capacity of compounds to cross the Blood-Brain Barrier (BBB) by passive diffusion (Di L et al., Eur. J. Med. Chem. 2003; 38(3):223-32). The effective permeability (Pe) of the compounds was measured at an initial concentration of 200 μM. The buffer solution was prepared from a commercial concentrated one following the manufacturer's instructions. pH was adjusted to 7.4 using a 0.5 M NaOH solution. A stock solution of new compound was prepared in DMSO and diluted with buffer solution to a final 200 μM concentration (0.5% DMSO content). The PAMPA sandwich was separated and each donor well was filled with 200 μL of the compound solution. The acceptor plate was placed into the donor plate, ensuring that the underside of the membrane was in contact with buffer. 4 μL of the mixture of phospholipids (20 mg/mL) in dodecane was added to the filter of each well, and 200 μL of buffer solution was added to the each acceptor well. The plate was covered and incubated at room temperature in a saturated humidity atmosphere for 4 hours under orbital agitation at 100 rpm. After 4 hours, the contents of the acceptor and donor compartments were analyzed by HPLC: 150 μL of each well from the donor plate and 150 μL of each well from the acceptor plate were transferred to HPLC vials, injecting each sample into a reverse-phase C18 column (150 mm×4.6 mm×5 μm, 100 Å) (100 μL/injection from the acceptor wells, 10 μL/injection from the donor wells and for t0 references). Transport was also confirmed by MALDI-TOF spectrometry.
The phospholipid mixture used was a porcine polar brain lipid extract, provided by Avanti polar lipids, with the following composition: 12.6% phosphatidylcholine (PC), 33.1% phosphatidylethanolamine (PE), 18.5% phosphatidylserine (PS), 4.1% phosphatidylinositol (PI), 0.8% phosphatidic acid and 30.9% of other compounds.
The effective permeability (Pe) after 4 hours was calculated using equation 2 and the percentage of transport was calculated using equation 3:
[formula] wherein: t is time (h) CA(t) is the compound concentration in the acceptor well at time t and CD(to) is the compound concentration in the donor well at to.

POP = POP (Homo sapiens (Human), UniProt P48147); settings: non-competitive POP inhibitor; Park D H et al., Fitoterapia 2010; read-out: IC50 (POP inhibition); cited from earlier work
Sequence of POP (P48147 whole entry): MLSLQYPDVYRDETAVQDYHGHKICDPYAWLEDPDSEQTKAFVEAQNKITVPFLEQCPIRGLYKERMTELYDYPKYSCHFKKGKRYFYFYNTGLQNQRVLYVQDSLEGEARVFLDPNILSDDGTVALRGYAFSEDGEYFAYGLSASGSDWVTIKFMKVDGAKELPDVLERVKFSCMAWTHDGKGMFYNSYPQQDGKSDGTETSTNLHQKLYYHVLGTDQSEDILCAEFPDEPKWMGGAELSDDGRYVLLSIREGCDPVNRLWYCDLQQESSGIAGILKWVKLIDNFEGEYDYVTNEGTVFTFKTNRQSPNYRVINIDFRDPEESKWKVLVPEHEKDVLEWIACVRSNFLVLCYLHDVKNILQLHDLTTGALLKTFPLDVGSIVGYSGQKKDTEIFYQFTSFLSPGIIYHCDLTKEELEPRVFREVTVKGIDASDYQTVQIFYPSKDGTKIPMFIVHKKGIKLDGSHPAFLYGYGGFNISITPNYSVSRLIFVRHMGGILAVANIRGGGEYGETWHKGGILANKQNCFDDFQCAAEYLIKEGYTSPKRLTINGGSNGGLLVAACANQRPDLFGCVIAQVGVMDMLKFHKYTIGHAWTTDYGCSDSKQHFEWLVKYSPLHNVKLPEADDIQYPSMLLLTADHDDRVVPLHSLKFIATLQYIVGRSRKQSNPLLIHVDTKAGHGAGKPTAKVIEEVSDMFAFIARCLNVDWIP

Sequence of human prolyl oligopeptidase (P48147 whole entry): as above

Compound	IC50 [1]	% T (percentage of transport) [2]	Papp at 4 h, 200 μM [2]	IC50 (POP)
N#C[C@@H]1CCCN1C(=O)[C@@H]1CC(F)(F)CN1C(=O)c1ccc(OCc2ccccc2)c(C(F)(F)F)c1 [Example 20, (S)-1-((S)-1-(4-(benzyloxy)-3-(trifluoromethyl)benzoyl)-4,4-difluoropyrrolidine-2-carbonyl)pyrrolidine-2-carbonitrile]	4.5 nM	2.64%	1.29 ×10⁻⁶ cm/s	
N#C[C@@H]1CCCN1C(=O)[C@@H]1CC(F)(F)CN1C(=O)c1ccc(OCc2ccccc2)c(F)c1 [Example 21, (S)-1-((S)-1-(4-(benzyloxy)-3-fluorobenzoyl)-4,4-difluoropyrrolidine-2-carbonyl)pyrrolidine-2-carbonitrile]	5 nM	10.43%	5.57 ×10⁻⁶ cm/s	
O=C(/C=C/c1ccc(O)c(O)c1)O[C@H](Cc1ccc(O)c(O)c1)C(=O)O [rosmarinic acid]				63700 nM
